The values below come from article PMC11292843 (ACS Omega, 2024).

For assay [1], the target named is T1, hPTP1B1–400 (Homo sapiens, UniProt P18031).
T1 sequence (P18031 1-400): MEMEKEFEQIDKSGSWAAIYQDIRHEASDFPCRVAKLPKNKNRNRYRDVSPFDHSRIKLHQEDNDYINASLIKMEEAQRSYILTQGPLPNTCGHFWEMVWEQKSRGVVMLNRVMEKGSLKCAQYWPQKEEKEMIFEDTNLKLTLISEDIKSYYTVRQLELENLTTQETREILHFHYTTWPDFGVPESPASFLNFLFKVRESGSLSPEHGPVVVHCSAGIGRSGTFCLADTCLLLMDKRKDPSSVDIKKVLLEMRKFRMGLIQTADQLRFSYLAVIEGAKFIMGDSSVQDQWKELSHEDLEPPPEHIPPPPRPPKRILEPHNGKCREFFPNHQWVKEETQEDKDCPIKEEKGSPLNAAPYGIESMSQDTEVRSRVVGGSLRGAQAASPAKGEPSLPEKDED
Details: containing purified hPTP1B 66 nM (hPTP1B1–285 and hPTP1B1–400) and pNPP 0.5 mM; made in house; method as in PMID 36997321. As to conditions: cited from earlier work.

For assay [2], the target named is PTP1B. As to conditions: cited from earlier work.
Assay [3] concerns the target T2, hPTP1B1–285 (Homo sapiens, UniProt P18031).
T2 sequence (P18031 1-285): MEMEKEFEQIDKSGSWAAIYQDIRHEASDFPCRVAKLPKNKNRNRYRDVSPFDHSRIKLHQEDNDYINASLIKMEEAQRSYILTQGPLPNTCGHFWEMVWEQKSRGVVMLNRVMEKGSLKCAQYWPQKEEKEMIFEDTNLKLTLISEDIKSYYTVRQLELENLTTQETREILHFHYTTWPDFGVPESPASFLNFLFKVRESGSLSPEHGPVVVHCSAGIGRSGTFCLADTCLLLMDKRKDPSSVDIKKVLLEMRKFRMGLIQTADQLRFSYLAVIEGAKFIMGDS
The assay can be described thus: PTP1B inhibition assay (pNPP, spectrocolorimetric), short form.

The target of assay [4] is T3, hTCPTP (Homo sapiens, UniProt P17706).
T3 construct: His tag (vector pET-28a(+)-TEV, with TEV site); made in house; host or cells: E. coli BL21 (DE3)
T3 sequence (P17706 1-415): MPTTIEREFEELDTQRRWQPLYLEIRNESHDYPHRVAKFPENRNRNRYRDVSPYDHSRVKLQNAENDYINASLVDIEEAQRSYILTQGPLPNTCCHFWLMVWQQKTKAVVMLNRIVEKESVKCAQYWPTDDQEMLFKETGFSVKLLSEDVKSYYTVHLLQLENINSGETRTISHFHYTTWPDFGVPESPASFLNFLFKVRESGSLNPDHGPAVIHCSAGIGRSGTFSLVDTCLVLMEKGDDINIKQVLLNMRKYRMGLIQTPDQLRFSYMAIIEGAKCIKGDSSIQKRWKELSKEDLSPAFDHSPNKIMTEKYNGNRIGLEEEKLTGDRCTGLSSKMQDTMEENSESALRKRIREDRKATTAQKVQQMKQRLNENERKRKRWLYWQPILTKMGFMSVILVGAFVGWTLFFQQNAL
The assay can be described thus: Selectivity assay against TCPTP. Type of assay: biochemical. As to conditions: for IC50: concentrations tested 1 to 400 μM, read-out: TCPTP IC50 ± SD; for fold selectivity for PTP1B over TCPTP / selectivity (PTP1B over TCPTP): hPTP1B1–400 vs hTCPTP. The method, then: A spectrocolorimetric method previously described[3] was employed to test the inhibitory effect of the new compounds against PTP1B. […] Enzyme solutions containing pNPP and inhibitors were incubated at 37 °C for 15 min. […] The percentage of inhibition was plotted as a function of the inhibitor concentrations.
Similarly to the IC50, the assays to determine the selectivity were carried out in the same experimental conditions using hPTP1B1–400 and hTCPTP.
The expression vector pET-28a(+)-TEV was obtained from Invitrogen (Waltham, MA, USA). E. coli strain DH5α and BL21 (DE3) were purchased from Invitrogen (Waltham, MA, USA). The gene PTPN2 was subcloned into the expression vector pET-28a (+)-TEV, using the NDEI and BAMHI cloning sites. The construction pET-28A(+)-TEV–PTPN2 was transformed into E. coli strain BL21 (DE3). Transformed E. coli cells were grown in LB media containing kanamycin ([…]) at 37 °C for 6 h with continuous agitation (250 rpm). Once the cultures reached an A600 of 0.6 (about 6 h), protein expression was induced with 1 mM IPTG at 37 °C, 250 rpm for 8 h. After centrifuge (4500 rpm, 15 min, 4 °C), the grown and IPTG-induced cultures and bacterial pellet were resuspended in Tris buffer (pH 6.8) and lysed by sonication (10 cycles, intervals of 30 s) in an ice–water bath with an ultrasonic processor (Cole-Parmer, Vernon Hills, IL, USA). […] The column was equilibrated with three column volumes of 50 mM Tris, pH 6.8. His-tagged protein was eluted with Tris 50 mM and 300 mM imidazole with one column volume. […] Fractions containing hTCPTP were dialyzed in 50 mM Tris, pH 6.8. The purity of the protein was followed by SDS-polyacrylamide gel electrophoresis (SDS-PAGE) using a 12% resolving gel.

Assay [5] deals with T1, hPTP1B1–400. The assay can be described thus: PTP1B inhibition assay (pNPP, spectrocolorimetric), long form. As to conditions: for fold higher potency for hPTP1B1–400 over hPTP1B1–285: ratio of IC50 values, long vs short form.
Assay [6] has as its target T1, hPTP1B1–400. Briefly: Enzyme kinetics (Lineweaver–Burk, varying pNPP). As to conditions: for inhibition mechanism: hPTP1B1–400, best fit of inhibition models; for Km / Vmax: hPTP1B1–400, pNPP 0.1–0.5 mM.
Where [7] appears, read: IC50 ± SD hPTP1B1–400, hPTP1B 66 nM, pNPP 0.5 mM, 37 °C, 15 min.
[8] abbreviates: PTP1B IC50 ± SD, selectivity assay, hPTP1B1–400.

Read-outs that look alike come from different tables or passages of the source.

What is called Km is the substrate concentration at which the rate is half of its maximum. In general, Vmax refers to the rate approached at saturating substrate. Regarding `Cc1ccc(C(=O)Nc2ccc(S(=O)(=O)O)c3cc(S(=O)(=O)O)cc(S(=O)(=O)O)c23)cc1NC(=O)c1cccc(NC(=O)Nc2cccc(C(=O)Nc3cc(C(=O)Nc4ccc(S(=O)(=O)O)c5cc(S(=O)(=O)O)cc(S(=O)(=O)O)c45)ccc3C)c2)c1` [SUR, suramin], in assay [1], the Km was 290 ± 20 µM, the Vmax is 0.64 ± 0.02 mM/min and the inhibition mechanism entry is “competitive inhibition”.

The Ki is a dissociation constant, usually derived from enzyme kinetics or from competition with a known ligand. Broadly, the IC50 is the midpoint of a concentration-inhibition curve. As for `O=C(O)C(=O)Nc1sc2c(c1C(=O)O)CCNC2` [TCS401, reference compound], the Ki in assay [2] was 4.7 µM. Further, the IC50 in assay [3] stood at 12.4 ± 1 µM; in assay [4], 6.7 ± 0.6 µM; in assay [5] (setting [7]) it was 8.1 ± 0.9 µM; in assay [5] (setting [8]) it was 8.15 ± 0.91 µM.

Consider `C[C@H]1[C@H](C)CC[C@]2(C(=O)O)CC[C@]3(C)C(=CC[C@@H]4[C@@]5(C)CC[C@H](O)C(C)(C)[C@@H]5CC[C@]43C)[C@H]12` [UA, ursolic acid], for which the IC50 in assay [4] is > 400 µM. Besides, in assay [1], the Vmax was 0.63 ± 0.08 mM/min and the inhibition mechanism entry is “mixed inhibition”.

Take `C[C@H](CCC(=O)O)C1CCC2C3CC[C@@H]4C[C@](O)(CNCc5cccc(C(F)(F)F)c5)CC[C@]4(C)C3CC[C@@]21C.Cl` (stereo partly drawn) [compound 6m, 1-((3S,5R,10S,13R)-17-((R)-4-carboxybutan-2-yl)-3-hydroxy-10,13-dimethylhexadecahydro-1H-cyclopenta[a]phenanthren-3-yl)-N-(3-(trifluoromethyl)benzyl)methanaminium Chloride]: 34.9 ± 0.4 µM corresponded to half-maximal inhibition in assay [3] (IC50). Moreover, in assay [4], the IC50 was > 400 µM, the “fold selectivity for PTP1B over TCPTP” value is recorded as “around 75 fold” and the “selectivity (PTP1B over TCPTP)” value is given as “Yes”. In assay [6], the inhibitory constant (Ki) came out at 2.5 ± 0.4 µM, the inhibition mechanism result was “uncompetitive inhibition”, the Km came to 780 ± 200 µM and the Vmax was 1.05 ± 0.18 mM/min. The compound further displayed an IC50 in assay [5] (setting [7]) of 7.3 ± 0.5 µM. In addition, half-maximal inhibition in assay [5] (setting [8]) (IC50) was put at 7.3 ± 0.5 µM. In addition, the “fold higher potency for hPTP1B1–400 over hPTP1B1–285” value in assay [5] is “around 5 fold”.

In assay [3], `C[C@H](CCC(=O)O)C1CCC2C3CC[C@@H]4C[C@](O)(CNCc5ccc(C(F)(F)F)cc5)CC[C@]4(C)C3CC[C@@]21C.Cl` (stereo partly drawn) [compound 6n, 1-((3S,5R,10S,13R)-17-((R)-4-carboxybutan-2-yl)-3-hydroxy-10,13-dimethylhexadecahydro-1H-cyclopenta[a]phenanthren-3-yl)-N-(4-(trifluoromethyl)benzyl)methanaminium Chloride] had an IC50 of 16.3 ± 0.9 µM. Besides, in assay [4], the IC50 is > 400 µM, the “fold selectivity for PTP1B over TCPTP” value is on record as “around 75 fold” and the “selectivity (PTP1B over TCPTP)” value was “Yes”. Moreover, in assay [6], affinity was put at a Ki of 3.4 ± 0.3 µM, the inhibition mechanism result was “uncompetitive inhibition”, the Km came out at 520 ± 70 µM and the Vmax is listed as 0.73 ± 0.06 mM/min. The compound also registered an IC50 in assay [5] (setting [7]) of 5.3 ± 0.2 µM. The compound further registered an IC50 in assay [5] (setting [8]) of 5.3 ± 0.2 µM. Moreover, in assay [5] (hPTP1B1–400 IC50 compared with LA), the “fold more potent than LA” value came out at 3 fold. Further, the “fold higher potency for hPTP1B1–400 over hPTP1B1–285” value in assay [5] is recorded as ~3 fold.

`C[C@H](CCC(=O)O)C1CCC2C3CC[C@@H]4C[C@](O)(CNCc5cc(C(F)(F)F)cc(C(F)(F)F)c5)CC[C@]4(C)C3CC[C@@]21C.Cl` (stereo partly drawn) [compound 6o, N-(3,5-bis(trifluoromethyl)benzyl)-1-((3S,5R,10S,13R)-17-((R)-4-carboxybutan-2-yl)-3-hydroxy-10,13-dimethylhexadecahydro-1H-cyclopenta[a]phenanthren-3-yl)methanaminium Chloride] registered an IC50 in assay [3] of 43 ± 1.3 µM. For the same compound, in assay [4], the IC50 is > 400 µM and the “selectivity (PTP1B over TCPTP)” value was “Yes”. Also, in assay [6], the inhibitory constant (Ki) is 3.9 ± 0.7 µM, the inhibition mechanism result is “Uncompetitive”, the Km came out at 1900 ± 300 µM and the maximal velocity (Vmax) came out at 2.7 ± 0.4 mM/min. Moreover, in assay [5] (setting [7]), the IC50 is 11 ± 0.2 µM. For the same compound, in assay [5] (setting [8]), the IC50 was 11 ± 0.2 µM.
